Source: US11066414B2, “Cot modulators and methods of use thereof” (Gilead Sciences, Inc., priority 2015, dated 2021)
Where two headings read alike, the source gives them in different places.

How the values were obtained:
Human Cot = Human Cot (Homo sapiens (Human), UniProt P41279); assay: High Throughput Cot Biochemical Assay; settings: IC50 HTRF
TNFα = assay: Cot Monocyte TNFα Cell Based Assay; settings: Homo sapiens, Monocyte
[1] = Cot HTRF (TR-FRET) biochemical assay
[2] = read-out: EC50 TNF, LPS-stimulated human monocytes, TNFα
[3] = Cot HTRF (TR-FRET KinEASE) biochemical assay, 400 μM ATP
[4] = read-out: EC50 TNF, LPS-stimulated human monocytes, TNFα TR-FRET

Sequence of Human Cot (P41279 30-397): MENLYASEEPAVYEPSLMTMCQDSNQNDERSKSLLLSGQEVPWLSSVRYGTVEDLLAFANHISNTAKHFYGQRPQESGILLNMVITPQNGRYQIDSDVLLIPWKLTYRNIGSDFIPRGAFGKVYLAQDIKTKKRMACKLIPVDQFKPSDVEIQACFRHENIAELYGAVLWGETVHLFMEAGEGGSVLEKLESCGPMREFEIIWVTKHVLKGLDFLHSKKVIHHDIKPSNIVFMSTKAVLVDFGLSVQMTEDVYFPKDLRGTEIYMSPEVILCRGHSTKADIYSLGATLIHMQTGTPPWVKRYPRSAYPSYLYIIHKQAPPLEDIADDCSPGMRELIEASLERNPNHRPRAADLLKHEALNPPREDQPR

In the case of Cn1ccc2c([C@H](Nc3cc(Cl)c4ncc(C#N)c(NCC(C)(C)C)c4c3)c3cn(C4CC4)nn3)cccc2c1=O [Example 745, (S)-8-chloro-6-(((1-cyclopropyl-1H-1,2,3-triazol-4-yl)(2-methyl-1-oxo-1,2-dihydroisoquinolin-5-yl)methyl)amino)-4-(neopentylamino)quinoline-3-carbonitrile], the IC50 (Human Cot; [1]) is reported as 0.002 µM and the EC50 (TNFα; [2]) is reported as 0.028 µM.
Work on Cc1nc(F)ccc1[C@H](Nc1cc(Cl)c2ncc(C#N)c(NCC(C)(C)C)c2c1)c1cn(C2(CO)COC2)nn1 [Example 648, (S)-8-chloro-6-(((6-fluoro-2-methylpyridin-3-yl)(1-(3-(hydroxymethyl)oxetan-3-yl)-1H-1,2,3-triazol-4-yl)methyl)amino)-4-(neopentylamino)quinoline-3-carbonitrile] yielded an IC50 (Human Cot; [1]) of 0.003 µM and an EC50 (TNFα; [2]) of 0.114 µM.
For CC(C)(C)CNc1c(C#N)cnc2c(C#N)cc(N[C@H](c3cn(C4(C#N)CC4)nn3)c3cccc4cnccc34)cc12 [Example 580, (S)-6-(((1-(1-cyanocyclopropyl)-1H-1,2,3-triazol-4-yl)(isoquinolin-5-yl)methyl)amino)-4-(neopentylamino)-quinoline-3,8-dicarbonitrile], the IC50 (Human Cot; [1]) was 0.002 µM and the EC50 (TNFα; [2]) was 0.084 µM.
CCC(C)n1cc([C@@H](Nc2cc(Cl)c3ncc(C#N)c(NCC(C)(C)C)c3c2)c2cccc3c(=O)n(C)ccc23)nn1 (stereo partly shown) [Example 801, 6-(((1 S)-(1-(sec-butyl)-1H-1,2,3-triazol-4-yl)(2-methyl-1-oxo-1,2-dihydroisoquinolin-5-yl)methyl)amino)-8-chloro-4-(neopentylamino)quinoline-3-carbonitrile] gave an IC50 (Human Cot; [3]) of 0.003 µM and an EC50 (TNFα; [4]) of 0.031 µM.
Cc1ncccc1[C@H](Nc1cc(Cl)c2ncc(C#N)c(Nc3cnc(F)c(F)c3)c2c1)c1c[nH]nn1 [Example 173, (S)-8-chloro-4-((5,6-difluoropyridin-3-yl)amino)-6-(((2-methylpyridin-3-yl)(1H-1,2,3-triazol-4-yl)methyl)amino)quinoline-3-carbonitrile] was tested, and the IC50 (Human Cot; [1]) was 0.007 µM and the EC50 (TNFα; [2]) was 1.11 µM.
In the case of CC[C@@H](Nc1c(C#N)cnc2c(Cl)cc(N[C@@H](c3cccnc3)c3c[nH]nn3)cc12)c1ccccc1 [Example 254, 8-chloro-4-(((R)-1-phenylpropyl)amino)-6-(((S)-pyridin-3-yl(1H-1,2,3-triazol-4-yl)methyl)amino)quinoline-3-carbonitrile], the IC50 (Human Cot; [1]) is reported as 0.003 µM and the EC50 (TNFα; [2]) is reported as 0.23 µM.
Work on Cc1nc(F)ccc1[C@H](Nc1cc(Cl)c2ncc(C#N)c(NCC(C)(C)C)c2c1)c1nnn(C2CC2)c1F [Example 663, (S)-8-chloro-6-(((1-cyclopropyl-5-fluoro-1H-1,2,3-triazol-4-yl)(6-fluoro-2-methylpyridin-3-yl)methyl)amino)-4-(neopentylamino)quinoline-3-carbonitrile] yielded an IC50 (Human Cot; [1]) of 0.003 µM and an EC50 (TNFα; [2]) of 0.062 µM.
For CC(C)(C)CNc1c(C#N)cnc2c(C#N)cc(N[C@H](c3cn(C4(C(F)(F)F)CC4)nn3)c3cccc4c(=O)n(CC(F)(F)F)ccc34)cc12 [Example 875, (S)-4-(neopentylamino)-6-(((1-oxo-2-(2,2,2-trifluoroethyl)-1,2-dihydroisoquinolin-5-yl)(1-(1-(trifluoromethyl)cyclopropyl)-1H-1,2,3-triazol-4-yl)methyl)amino)quinoline-3,8-dicarbonitrile], the IC50 (Human Cot; [3]) was 0.002 µM and the EC50 (TNFα; [4]) was 0.166 µM.
For Cc1nc(F)ccc1[C@H](Nc1cc(C#N)c2ncc(C#N)c(NCC(C)(C)C)c2c1)c1cn(C2(C(N)=O)CC2)nn1 [Example 490, (S)-1-(4-(((3,8-dicyano-4-(neopentylamino)-quinolin-6-yl)amino)(6-fluoro-2-methylpyridin-3-yl)methyl)-1H-1,2,3-triazol-1-yl)cyclopropane-1-carboxamide], the IC50 (Human Cot; [1]) was 0.001 µM and the EC50 (TNFα; [2]) was 1 µM.
COc1ccc([C@H](Nc2cc(Cl)c3ncc(C#N)c(NCC(C)(C)C)c3c2)c2cn(C3(C(F)F)CC3)nn2)c(C)n1 [Example 729, (S)-8-chloro-6-(((1-(1-(difluoromethyl)cyclopropyl)-1H-1,2,3-triazol-4-yl)(6-methoxy-2-methylpyridin-3-yl)methyl)amino)-4-(neopentylamino)quinoline-3-carbonitrile] was tested, and the IC50 (Human Cot; [1]) was 0.005 µM and the EC50 (TNFα; [2]) was 0.108 µM.
With CC[C@@H](Nc1c(C#N)cnc2c(Cl)cc(N[C@@H](c3cccnc3)c3cn(CC(F)(F)F)nn3)cc12)c1ccccc1 [Example 195, 8-chloro-4-(((R)-1-phenylpropyl)amino)-6-(((S)-pyridin-3-yl(1-(2,2,2-trifluoroethyl)-1H-1,2,3-triazol-4-yl)methyl)amino)quinoline-3-carbonitrile] the IC50 (Human Cot; [1]) was 0.004 µM and the EC50 (TNFα; [2]) was 0.132 µM.
Molecule Cn1ccc2c([C@H](Nc3cc(Cl)c4ncc(C#N)c(NCC(C)(C)C)c4c3)c3cn(C4(CF)CC4)nn3)cccc2c1=O [Example 775, (S)-8-chloro-6-(((1-(1-(fluoromethyl)cyclopropyl)-1H-1,2,3-triazol-4-yl)(2-methyl-1-oxo-1,2-dihydroisoquinolin-5-yl)methyl)amino)-4-(neopentylamino)quinoline-3-carbonitrile] has an IC50 (Human Cot; [1]) of 0.003 µM and an EC50 (TNFα; [2]) of 0.027 µM.
Work on CC[C@@H](Nc1c(C#N)cnc2c(C#N)cc(N[C@H](c3cn(C4(C(F)(F)F)CC4)nn3)c3cccc4ncsc34)cc12)c1ccccc1 [Example 412, 6-(((S)-benzo[d]thiazol-7-yl(1-(1-(trifluoromethyl)-cyclopropyl)-1H-1,2,3-triazol-4-yl)methyl)amino)-4-(((R)-1-phenylpropyl)amino)quinoline-3,8-dicarbonitrile] yielded an IC50 (Human Cot; [1]) of 0.007 µM and an EC50 (TNFα; [2]) of 0.157 µM.
For CC(C)(C)CNc1c(C#N)cnc2c(C#N)cc(N[C@H](c3cn(C4(C#N)CC4)nn3)c3cccc4ncccc34)cc12 [Example 577, (S)-6-(((1-(1-cyanocyclopropyl)-1H-1,2,3-triazol-4-yl)(quinolin-5-yl)methyl)amino)-4-(neopentylamino)-quinoline-3,8-dicarbonitrile], the IC50 (Human Cot; [1]) was 0.001 µM and the EC50 (TNFα; [2]) was 0.049 µM.
Molecule CC(C)(C)CNc1c(C#N)cnc2c(C#N)cc(N[C@H](c3cn(C4(C(F)F)CC4)nn3)c3cccc4ccncc34)cc12 [Example 552, (S)-6-(((1-(1-(difluoromethyl)cyclopropyl)-1H-1,2,3-triazol-4-yl)(isoquinolin-8-yl)methyl)-amino)-4-(neopentylamino)quinoline-3,8-dicarbonitrile] has an IC50 (Human Cot; [1]) of 0.002 µM and an EC50 (TNFα; [2]) of 0.026 µM.
In the case of Cn1ccc2c([C@H](Nc3cc(Cl)c4ncc(C#N)c(NCC(C)(C)C(F)(F)F)c4c3)c3cn(C4(C(F)(F)F)CC4)nn3)cccc2c1=O [Example 780, (S)-8-chloro-6-(((2-methyl-1-oxo-1,2-dihydroisoquinolin-5-yl)(1-(1-(trifluoromethyl)-cyclopropyl)-1H-1,2,3-triazol-4-yl)methyl)amino)-4-((3,3,3-trifluoro-2,2-dimethylpropyl)amino)-quinoline-3-carbonitrile], the IC50 (Human Cot; [1]) is reported as 0.005 µM and the EC50 (TNFα; [2]) is reported as 0.052 µM.
Cc1nc(F)ccc1[C@H](Nc1cc(Cl)c2ncc(C#N)c(NCC(C)(C)C)c2c1)c1cn(C2(C(F)F)CC2)nn1 [Example 447, (S)-8-chloro-6-(((1-(1-(difluoromethyl)-cyclopropyl)-1H-1,2,3-triazol-4-yl)(6-fluoro-2-methylpyridin-3-yl)methyl)-amino)-4-(neopentylamino)quinoline-3-carbonitrile] showed an IC50 (Human Cot; [1]) of 0.002 µM and an EC50 (TNFα; [2]) of 0.04 µM.
For CC(C)(C)CNc1c(C#N)cnc2c(Br)cc(N[C@H](c3cn(C4CC4)nn3)c3cccc4c3C(=O)NC4)cc12 [Example 78, (S)-8-bromo-6-(((1-cyclopropyl-1H-1,2,3-triazol-4-yl)(3-oxoisoindolin-4-yl)methyl)amino)-4-(neopentylamino)quinoline-3-carbonitrile], the IC50 (Human Cot; [1]) was 0.003 µM and the EC50 (TNFα; [2]) was 0.332 µM.
Molecule Cc1nc(F)ccc1[C@H](Nc1cc(Cl)c2ncc(C#N)c(NCC(C)(C)CC#N)c2c1)c1cn(C2(C(F)F)CC2)nn1 [Example 512, (S)-8-chloro-4-((3-cyano-2,2-dimethyl-propyl)amino)-6-(((1-(1-(difluoromethyl)-cyclopropyl)-1H-1,2,3-triazol-4-yl)(6-fluoro-2-methylpyridin-3-yl)methyl)amino)quinoline-3-carbonitrile] has an IC50 (Human Cot; [1]) of 0.01 µM and an EC50 (TNFα; [2]) of 0.418 µM.
CC(C)n1cc([C@@H](Nc2cc(Cl)c3ncc(C#N)c(Nc4ccc(F)c(Cl)c4)c3c2)c2csc3c2CCN(C)C3)nn1 [Example 345, (S)-8-chloro-4-((3-chloro-4-fluorophenyl)amino)-6-(((1-isopropyl-1H-1,2,3-triazol-4-yl)(6-methyl-4,5,6,7-tetrahydrothieno[2,3-c]pyridin-3-yl)methyl)amino)quinoline-3-carbonitrile] showed an IC50 (Human Cot; [1]) of 0.003 µM and an EC50 (TNFα; [2]) of 0.073 µM.
COC[C@H](C)n1cc([C@@H](Nc2cc(Cl)c3ncc(C#N)c(NCC(C)(C)C)c3c2)c2cccc3c(=O)n(C)ccc23)nn1 [Example 802, 8-chloro-6-(((S)-(1-((S)-1-methoxypropan-2-yl)-1H-1,2,3-triazol-4-yl)(2-methyl-1-oxo-1,2-dihydroisoquinolin-5-yl)methyl)amino)-4-(neopentylamino)quinoline-3-carbonitrile] showed an IC50 (Human Cot; [3]) of 0.004 µM and an EC50 (TNFα; [4]) of 0.036 µM.
Cn1nccc1[C@H](Nc1cc(Cl)c2ncc(C#N)c(Nc3ccc(F)c(Cl)c3)c2c1)c1cn(C2CCN(C(C)(C)C)CC2)nn1 [Example 305, (S)-6-(((1-(1-(tert-butyl)piperidin-4-yl)-1H-1,2,3-triazol-4-yl)(1-methyl-1H-pyrazol-5-yl)methyl)amino)-8-chloro-4-((3-chloro-4-fluorophenyl)amino)quinoline-3-carbonitrile] showed an IC50 (Human Cot; [1]) of 0.003 µM and an EC50 (TNFα; [2]) of 0.084 µM.
Cc1ncccc1[C@H](Nc1cc(Cl)c2ncc(C#N)c(N[C@H](C)c3ccccc3)c2c1)c1cn(C(C)C)nn1 [Example 230, 8-chloro-6-(((S)-(1-isopropyl-1H-1,2,3-triazol-4-yl)(2-methylpyridin-3-yl)methyl)amino)-4-(((R)-1-phenylethyl)amino)quinoline-3-carbonitrile] was tested, and the IC50 (Human Cot; [1]) was 0.009 µM and the EC50 (TNFα; [2]) was 0.252 µM.
